Assay results reported in ChEMBL document CHEMBL5356952, “Design, synthesis, and biological evaluation of deuterated indolepropionic acid derivatives as novel long-acting pan PPARα/γ/δ agonists” (Bioorg Med Chem, 2023).

Key:
[1] = Metabolic stability in rat liver microsomes assessed as half life preincubated for 5 mins followed by NADPH addition and measured upto 60 mins by LC-MS analysis; format: ADME, Microsome; conditions: time < 65 min
[2] = biological target: T1, Peroxisome proliferator-activated receptor alpha (Homo sapiens, UniProt Q07869); assay: Agonist activity at PPARalpha (unknown origin)
T1 sequence (Q07869 whole entry): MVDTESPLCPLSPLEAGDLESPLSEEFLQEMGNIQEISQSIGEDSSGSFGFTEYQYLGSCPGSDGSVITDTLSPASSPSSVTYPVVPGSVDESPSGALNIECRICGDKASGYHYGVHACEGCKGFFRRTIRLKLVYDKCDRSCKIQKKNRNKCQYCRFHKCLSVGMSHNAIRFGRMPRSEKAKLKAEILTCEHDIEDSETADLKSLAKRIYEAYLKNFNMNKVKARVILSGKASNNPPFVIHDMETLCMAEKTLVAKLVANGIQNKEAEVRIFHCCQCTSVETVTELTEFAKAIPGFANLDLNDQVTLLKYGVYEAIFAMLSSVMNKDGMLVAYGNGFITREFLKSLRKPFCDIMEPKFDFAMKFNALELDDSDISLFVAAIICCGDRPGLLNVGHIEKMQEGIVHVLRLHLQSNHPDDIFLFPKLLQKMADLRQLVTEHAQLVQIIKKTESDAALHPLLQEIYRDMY

[3] = biological target: T2, Peroxisome proliferator-activated receptor delta (Homo sapiens, UniProt Q03181); assay: Agonist activity at PPARdelta (unknown origin)
T2 sequence (Q03181 whole entry): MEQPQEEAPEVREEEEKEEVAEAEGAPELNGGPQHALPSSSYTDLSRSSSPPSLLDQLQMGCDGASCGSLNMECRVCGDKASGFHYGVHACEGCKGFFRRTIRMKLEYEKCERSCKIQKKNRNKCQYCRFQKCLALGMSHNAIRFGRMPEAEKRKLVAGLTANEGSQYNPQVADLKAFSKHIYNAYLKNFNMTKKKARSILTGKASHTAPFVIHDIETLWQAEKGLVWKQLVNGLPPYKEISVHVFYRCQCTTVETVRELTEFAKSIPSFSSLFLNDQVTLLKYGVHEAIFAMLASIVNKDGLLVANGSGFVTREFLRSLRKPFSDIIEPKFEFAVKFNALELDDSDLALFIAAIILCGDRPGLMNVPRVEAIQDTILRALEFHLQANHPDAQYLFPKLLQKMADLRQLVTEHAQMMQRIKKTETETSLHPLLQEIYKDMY

[4] = biological target: T3, Peroxisome proliferator-activated receptor gamma (Homo sapiens, UniProt P37231); assay: Agonist activity at PPARgamma (unknown origin)
T3 sequence (P37231 whole entry): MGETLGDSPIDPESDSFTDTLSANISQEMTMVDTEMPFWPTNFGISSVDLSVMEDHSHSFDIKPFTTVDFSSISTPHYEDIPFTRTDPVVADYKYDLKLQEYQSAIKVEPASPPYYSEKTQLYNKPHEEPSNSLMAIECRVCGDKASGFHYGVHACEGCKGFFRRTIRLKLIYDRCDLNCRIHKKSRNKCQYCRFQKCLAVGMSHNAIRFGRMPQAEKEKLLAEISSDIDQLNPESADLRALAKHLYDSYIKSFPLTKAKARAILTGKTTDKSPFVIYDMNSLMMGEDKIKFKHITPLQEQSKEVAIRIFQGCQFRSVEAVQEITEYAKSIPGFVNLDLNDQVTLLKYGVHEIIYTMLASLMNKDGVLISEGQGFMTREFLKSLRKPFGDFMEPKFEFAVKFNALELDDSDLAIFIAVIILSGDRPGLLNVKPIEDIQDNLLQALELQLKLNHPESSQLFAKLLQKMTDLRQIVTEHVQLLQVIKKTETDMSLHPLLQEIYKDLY

[5] = Half life in rat; format: ADME; conditions: in vivo

Row | Compound | half-life [1] [h] | EC50 [2] [µM] | EC50 [3] [µM] | EC50 [4] [µM] | half-life [5] [h]
1 | [2H]C([2H])(Cc1cn(S(=O)(=O)c2ccc3c(c2)CCO3)c2ccc(OC)cc12)C(=O)O | 1.12 |  |  |  | 
2 | COc1ccc(S(=O)(=O)n2cc(CCC(=O)O)c3cc(OC)ccc32)cc1 [INDEGLITAZAR] | 0.775 | 1.15 | 0.94 |  | 1.4

Next, values leading:

Row | half-life [1] [h] | EC50 [2] [µM] | EC50 [3] [µM] | EC50 [4] [µM] | half-life [5] [h] | Compound
3 | 1.16 | 0.98 | 0.85 |  |  | [2H]C([2H])(Cc1cn(S(=O)(=O)c2ccc(OC)cc2)c2ccc(OC)cc12)C(=O)O
4 | 1.06 |  |  |  |  | [2H]C([2H])(Cc1cn(S(=O)(=O)c2ccc(C3CC3)cc2)c2ccc(OC)cc12)C(=O)O
5 | 1.23 | 1.26 |  | 0.95 |  | [2H]C([2H])(Cc1cn(S(=O)(=O)c2ccc(OC(F)(F)F)cc2)c2ccc(OC)cc12)C(=O)O
6 | 1.14 | 2.52 | 2.97 |  |  | [2H]C([2H])(Cc1cn(S(=O)(=O)c2ccc(OC)cc2)c2ccc(C3CC3)cc12)C(=O)O
